Test systems include A498 renal; HCT-15 colon; KM12 colon; LOX IMVI melanoma; M14 melanoma; MOLT-4 leukemia; NCI-H226 lung; OVCAR-4 ovarian; SNB-75 CNS; UACC-257 melanoma.
Assay in all cases: NCI-60 cell line screen, 48 h

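Test compounds were applied to cells in 96-well plates for 48 hours at 5 doses. GI50: concentration for 50% inhibition of growth. TGI: concentration producing complete growth inhibition.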

As to `Cc1cccc2c1NC(=O)[C@@]21[C@H](C(=O)c2ccccc2)[C@]2(C(=O)Nc3ccccc32)[C@H]2CCCN21`, the GI50 in the test on A498 renal is above 100 µM; with HCT-15 colon, 25.1 µM; in the test with KM12 colon, 58.9 µM; in the test with LOX IMVI melanoma, 34.5 µM; in the test with M14 melanoma it was 43.3 µM; in the test with MOLT-4 leukemia, 52.7 µM. Also, the GI50 was 27.1 µM with NCI-H226 lung, 16.4 µM in the test on OVCAR-4 ovarian, 15 µM with SNB-75 CNS and above 100 µM in the test with UACC-257 melanoma. Further, the TGI with A498 renal, in the test on HCT-15 colon, in the test on KM12 colon, in the test with LOX IMVI melanoma, with M14 melanoma and in the test with MOLT-4 leukemia was above 100 µM throughout. The TGI in the test on NCI-H226 lung was above 100 µM; in the test with OVCAR-4 ovarian, 40.7 µM; with SNB-75 CNS it was 63.4 µM; in the test with UACC-257 melanoma, above 100 µM.
`O=C1/C(=C/c2ccccc2)CN(CCC(=O)N2C/C(=C\c3ccccc3)C(=O)/C(=C/c3ccccc3)C2)C/C1=C\c1ccccc1`: the GI50 in the test with A498 renal was 1.5 µM; in the test with HCT-15 colon, 0.906 µM; with KM12 colon it was 0.911 µM; in the test on LOX IMVI melanoma, 0.628 µM; in the test on M14 melanoma, 4.13 µM; with MOLT-4 leukemia, 2.6 µM. The GI50 was 12.7 µM with NCI-H226 lung, 18.8 µM in the test on OVCAR-4 ovarian, 10.7 µM in the test on SNB-75 CNS and 24.6 µM in the test with UACC-257 melanoma. Also, the TGI with A498 renal is 17.8 µM; with HCT-15 colon it was 45.1 µM; with KM12 colon, 7.48 µM; with LOX IMVI melanoma, 4.32 µM; with M14 melanoma it was above 77.9 µM; with MOLT-4 leukemia, above 100 µM. The TGI was 41.3 µM in the test with NCI-H226 lung, 83.1 µM in the test with OVCAR-4 ovarian, 35.3 µM in the test on SNB-75 CNS and above 100 µM with UACC-257 melanoma.
With `O=C1CCC2=C3C4CCCCC4C(=O)C4CCCC(OC2C1)C34` (centres undefined), the GI50 with A498 renal is 31.8 µM; in the test on HCT-15 colon it was 0.472 µM; in the test with KM12 colon, 1.75 µM; in the test on LOX IMVI melanoma it was 0.278 µM; in the test on M14 melanoma, 1.28 µM; in the test on MOLT-4 leukemia, 0.457 µM. Besides, the GI50 was above 41.2 µM with NCI-H226 lung, 1.79 µM in the test with OVCAR-4 ovarian, 5.23 µM in the test with SNB-75 CNS and 1.65 µM with UACC-257 melanoma. Besides, the TGI in the test on A498 renal was above 63.1 µM; with HCT-15 colon it was above 21.7 µM; in the test on KM12 colon, 5.46 µM; in the test with M14 melanoma, 4.23 µM; in the test on MOLT-4 leukemia, 5.66 µM; with NCI-H226 lung, above 78.9 µM. Also, the TGI with OVCAR-4 ovarian was above 25.1 µM; with SNB-75 CNS, above 43.8 µM; in the test on UACC-257 melanoma, 4.93 µM.
With `COc1ccc(C(=O)C(Br)C(Br)C(=O)O)cc1` (centres undefined), the TGI with A498 renal was above 100 µM; in the test on HCT-15 colon, above 100 µM; in the test with KM12 colon, above 100 µM; with LOX IMVI melanoma, 54 µM; with M14 melanoma, above 100 µM; in the test with MOLT-4 leukemia, 36.1 µM. Moreover, the TGI in the test on NCI-H226 lung, with OVCAR-4 ovarian, in the test with SNB-75 CNS and with UACC-257 melanoma was above 100 µM in each case.
Regarding `COc1cc([C@@H]2c3cc4c(cc3[C@@H](NCc3ccc(C#N)cc3)C3COC(=O)[C@@H]32)OCO4)cc(OC)c1O` (some centres undefined), the TGI in the test on A498 renal came to 3.84 µM; in the test with HCT-15 colon, 3.01 µM; with KM12 colon it was 3.78 µM; in the test on LOX IMVI melanoma, 4.36 µM; in the test with M14 melanoma, 6.55 µM; with MOLT-4 leukemia, 1.38 µM. Moreover, the TGI in the test with NCI-H226 lung was 2.26 µM; with OVCAR-4 ovarian it was above 100 µM; in the test with SNB-75 CNS, 3.25 µM; in the test on UACC-257 melanoma, 33.9 µM.
With `CCN(CC)C(=O)CNC(=O)OC(C)(C)C`, the TGI with A498 renal, in the test with HCT-15 colon, with KM12 colon, in the test with LOX IMVI melanoma, in the test with M14 melanoma and with MOLT-4 leukemia was above 100 µM in each case. Further, the TGI with NCI-H226 lung, with OVCAR-4 ovarian, in the test with SNB-75 CNS and in the test with UACC-257 melanoma was above 100 µM throughout.
For the compound `O=C(CN1CCOCC1)CC(O)(C(F)(F)F)C(F)(F)F`, the TGI in the test on A498 renal, in the test with HCT-15 colon, in the test on KM12 colon, in the test with LOX IMVI melanoma, with M14 melanoma and in the test on MOLT-4 leukemia was above 100 µM throughout. Moreover, the TGI in the test with NCI-H226 lung, in the test with OVCAR-4 ovarian, in the test on SNB-75 CNS and in the test with UACC-257 melanoma was above 100 µM throughout.
In the case of `NCC1OC(n2cnc3c(=O)[nH]c(N)nc32)C(O)C1O` (centres undefined), the TGI in the test on A498 renal, with HCT-15 colon, in the test with KM12 colon, in the test with LOX IMVI melanoma, with M14 melanoma and in the test on MOLT-4 leukemia was above 100 µM each time. The TGI in the test on NCI-H226 lung, in the test with OVCAR-4 ovarian, in the test with SNB-75 CNS and with UACC-257 melanoma was above 100 µM throughout.
Consider `CN(C1=NS(=O)(=O)N=C(N(C)c2ccccc2)O1)c1ccccc1`, for which the TGI with A498 renal is 42.1 µM; in the test on HCT-15 colon, 39.2 µM; in the test on KM12 colon, 34.4 µM; in the test on LOX IMVI melanoma, 27.6 µM; with M14 melanoma, 38.9 µM; with MOLT-4 leukemia, above 100 µM. In addition, the TGI is 33.1 µM in the test on NCI-H226 lung, 51.5 µM in the test on OVCAR-4 ovarian, 34.5 µM in the test with SNB-75 CNS and 57.4 µM with UACC-257 melanoma.

The values are drawn from PubChem BioAssay (NCI).
